According to article PMC11167047 (Cell Death Discovery, 2024):

Columns and labels:
Assay in all cases: kinome screen (33PanQinase)
Assay type in all cases: biochemical
BRK = target: T1, BRK (Homo sapiens, UniProt Q13882)
T1 construct: purchased Reaction Biology Europe GmbH (formerly ProQinase)
Method: (§1) The Kinome Screening was performed by Reaction Biology Europe GmbH (http://reactionbiology.com; Freiburg i. Br., Germany).

CDC42BPB = target: T2, CDC42BPB (Homo sapiens, UniProt Q9Y5S2)
T2 construct: purchased Reaction Biology Europe GmbH (formerly ProQinase)
Method: as §1

CDK20/CycT1 = target: T3, CDK20/CycT1 (Homo sapiens, UniProt Q8IZL9)
T3 construct: purchased Reaction Biology Europe GmbH (formerly ProQinase)
T3 sequence (Q8IZL9 whole entry): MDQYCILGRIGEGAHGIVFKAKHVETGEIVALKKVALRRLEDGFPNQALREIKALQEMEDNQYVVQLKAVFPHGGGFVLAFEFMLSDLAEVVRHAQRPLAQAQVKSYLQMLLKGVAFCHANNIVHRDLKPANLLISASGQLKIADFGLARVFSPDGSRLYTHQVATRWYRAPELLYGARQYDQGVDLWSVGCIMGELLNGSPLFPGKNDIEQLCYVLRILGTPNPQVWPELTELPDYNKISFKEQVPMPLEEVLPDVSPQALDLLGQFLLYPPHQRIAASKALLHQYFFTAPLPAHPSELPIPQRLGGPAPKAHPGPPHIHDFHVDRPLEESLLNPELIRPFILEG
T3 sequence (O60563 whole entry partner): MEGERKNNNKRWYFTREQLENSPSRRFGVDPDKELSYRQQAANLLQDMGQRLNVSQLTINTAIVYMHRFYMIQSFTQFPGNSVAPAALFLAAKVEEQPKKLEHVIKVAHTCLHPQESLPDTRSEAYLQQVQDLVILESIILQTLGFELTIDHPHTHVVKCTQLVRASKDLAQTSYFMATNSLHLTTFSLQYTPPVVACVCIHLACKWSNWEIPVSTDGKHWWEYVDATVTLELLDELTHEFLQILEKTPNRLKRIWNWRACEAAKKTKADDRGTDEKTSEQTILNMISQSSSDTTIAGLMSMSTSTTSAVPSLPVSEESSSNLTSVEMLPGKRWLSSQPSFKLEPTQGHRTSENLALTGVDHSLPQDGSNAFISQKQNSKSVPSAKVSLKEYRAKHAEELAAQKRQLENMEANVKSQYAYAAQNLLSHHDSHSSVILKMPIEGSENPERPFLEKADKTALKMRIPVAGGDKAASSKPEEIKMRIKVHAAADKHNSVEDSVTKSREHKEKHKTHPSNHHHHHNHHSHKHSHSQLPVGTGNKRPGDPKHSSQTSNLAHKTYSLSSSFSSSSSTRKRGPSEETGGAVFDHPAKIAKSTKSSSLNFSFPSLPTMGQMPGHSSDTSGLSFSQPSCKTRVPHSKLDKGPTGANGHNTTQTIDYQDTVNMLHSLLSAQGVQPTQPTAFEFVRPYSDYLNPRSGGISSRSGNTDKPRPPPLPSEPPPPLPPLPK
Method: as §1

CK1γ1 = target: T4, CK1γ1 (Homo sapiens, UniProt Q9HCP0)
T4 construct: purchased Reaction Biology Europe GmbH (formerly ProQinase)
Method: as §1

CK1γ3 = target: T5, CK1γ3 (Homo sapiens, UniProt Q9Y6M4)
T5 construct: purchased Reaction Biology Europe GmbH (formerly ProQinase)
T5 sequence (Q9Y6M4 whole entry): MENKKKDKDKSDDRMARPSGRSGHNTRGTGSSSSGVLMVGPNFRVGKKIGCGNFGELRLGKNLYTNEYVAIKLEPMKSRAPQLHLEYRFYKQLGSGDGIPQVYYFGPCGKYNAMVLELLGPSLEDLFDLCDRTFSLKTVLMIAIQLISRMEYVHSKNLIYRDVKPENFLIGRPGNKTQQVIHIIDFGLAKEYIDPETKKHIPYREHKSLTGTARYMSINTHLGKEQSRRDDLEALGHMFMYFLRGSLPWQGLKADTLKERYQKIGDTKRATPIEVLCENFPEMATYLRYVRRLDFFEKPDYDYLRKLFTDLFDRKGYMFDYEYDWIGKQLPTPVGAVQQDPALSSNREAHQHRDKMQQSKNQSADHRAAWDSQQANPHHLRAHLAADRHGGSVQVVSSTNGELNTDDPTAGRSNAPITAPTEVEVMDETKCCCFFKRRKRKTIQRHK
Method: as §1

FRK = target: T6, FRK (Homo sapiens, UniProt P42685)
T6 construct: purchased Reaction Biology Europe GmbH (formerly ProQinase)
Method: as §1

HIPK4 = target: T7, HIPK4 (Homo sapiens, UniProt Q8NE63)
T7 construct: purchased Reaction Biology Europe GmbH (formerly ProQinase)
T7 sequence (Q8NE63 1-616): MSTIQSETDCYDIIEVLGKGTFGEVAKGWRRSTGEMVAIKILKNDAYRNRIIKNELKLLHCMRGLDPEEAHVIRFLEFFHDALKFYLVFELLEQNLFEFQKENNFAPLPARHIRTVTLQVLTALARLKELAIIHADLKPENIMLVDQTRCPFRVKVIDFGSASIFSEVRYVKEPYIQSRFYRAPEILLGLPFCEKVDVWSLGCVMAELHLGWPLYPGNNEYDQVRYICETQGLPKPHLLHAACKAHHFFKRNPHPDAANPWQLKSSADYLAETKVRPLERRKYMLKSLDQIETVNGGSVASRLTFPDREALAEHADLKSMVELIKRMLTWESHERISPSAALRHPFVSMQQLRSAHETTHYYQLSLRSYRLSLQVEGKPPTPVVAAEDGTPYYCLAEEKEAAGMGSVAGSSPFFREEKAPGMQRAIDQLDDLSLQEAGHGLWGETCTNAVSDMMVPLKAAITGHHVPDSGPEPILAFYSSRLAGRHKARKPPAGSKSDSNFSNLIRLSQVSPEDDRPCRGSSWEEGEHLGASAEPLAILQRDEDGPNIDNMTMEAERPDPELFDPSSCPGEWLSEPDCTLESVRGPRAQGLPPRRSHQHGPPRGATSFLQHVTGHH
Method: as §1

JNK2 = target: T8, JNK2 (Homo sapiens, UniProt P45984)
T8 construct: purchased Reaction Biology Europe GmbH (formerly ProQinase)
T8 sequence (P45984 whole entry): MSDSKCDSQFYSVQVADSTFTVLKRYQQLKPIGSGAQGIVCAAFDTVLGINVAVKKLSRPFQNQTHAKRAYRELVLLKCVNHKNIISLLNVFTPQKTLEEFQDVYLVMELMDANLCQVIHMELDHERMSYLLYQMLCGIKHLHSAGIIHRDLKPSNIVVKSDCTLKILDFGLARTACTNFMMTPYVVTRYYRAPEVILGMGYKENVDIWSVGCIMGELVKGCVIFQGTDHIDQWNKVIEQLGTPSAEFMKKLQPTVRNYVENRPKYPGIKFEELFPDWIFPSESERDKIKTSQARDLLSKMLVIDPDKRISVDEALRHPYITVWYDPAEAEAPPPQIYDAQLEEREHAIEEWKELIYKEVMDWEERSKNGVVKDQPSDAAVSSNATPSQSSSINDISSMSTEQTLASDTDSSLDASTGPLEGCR
Method: as §1

MKK6 SDTD = target: T9, MKK6 SDTD (Homo sapiens, UniProt P52564, S207D/T211D)
T9 construct: purchased Reaction Biology Europe GmbH (formerly ProQinase)
T9 sequence (P52564 1-334 S207D/T211D): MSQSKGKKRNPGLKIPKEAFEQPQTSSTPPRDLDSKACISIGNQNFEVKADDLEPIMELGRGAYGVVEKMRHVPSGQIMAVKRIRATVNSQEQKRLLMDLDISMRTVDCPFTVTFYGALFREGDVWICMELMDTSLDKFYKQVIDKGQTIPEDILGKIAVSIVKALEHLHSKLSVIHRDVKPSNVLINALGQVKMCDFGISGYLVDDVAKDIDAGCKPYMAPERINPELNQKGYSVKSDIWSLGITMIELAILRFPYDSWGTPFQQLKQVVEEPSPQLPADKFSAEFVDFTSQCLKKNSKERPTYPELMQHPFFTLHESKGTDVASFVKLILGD
Method: as §1

MYLK2 = target: T10, MYLK2 (Homo sapiens, UniProt Q9H1R3)
T10 construct: purchased Reaction Biology Europe GmbH (formerly ProQinase)
Method: as §1

MYLK3 = target: T11, MYLK3 (Homo sapiens, UniProt Q32MK0)
T11 construct: purchased Reaction Biology Europe GmbH (formerly ProQinase)
T11 sequence (Q32MK0 1-819): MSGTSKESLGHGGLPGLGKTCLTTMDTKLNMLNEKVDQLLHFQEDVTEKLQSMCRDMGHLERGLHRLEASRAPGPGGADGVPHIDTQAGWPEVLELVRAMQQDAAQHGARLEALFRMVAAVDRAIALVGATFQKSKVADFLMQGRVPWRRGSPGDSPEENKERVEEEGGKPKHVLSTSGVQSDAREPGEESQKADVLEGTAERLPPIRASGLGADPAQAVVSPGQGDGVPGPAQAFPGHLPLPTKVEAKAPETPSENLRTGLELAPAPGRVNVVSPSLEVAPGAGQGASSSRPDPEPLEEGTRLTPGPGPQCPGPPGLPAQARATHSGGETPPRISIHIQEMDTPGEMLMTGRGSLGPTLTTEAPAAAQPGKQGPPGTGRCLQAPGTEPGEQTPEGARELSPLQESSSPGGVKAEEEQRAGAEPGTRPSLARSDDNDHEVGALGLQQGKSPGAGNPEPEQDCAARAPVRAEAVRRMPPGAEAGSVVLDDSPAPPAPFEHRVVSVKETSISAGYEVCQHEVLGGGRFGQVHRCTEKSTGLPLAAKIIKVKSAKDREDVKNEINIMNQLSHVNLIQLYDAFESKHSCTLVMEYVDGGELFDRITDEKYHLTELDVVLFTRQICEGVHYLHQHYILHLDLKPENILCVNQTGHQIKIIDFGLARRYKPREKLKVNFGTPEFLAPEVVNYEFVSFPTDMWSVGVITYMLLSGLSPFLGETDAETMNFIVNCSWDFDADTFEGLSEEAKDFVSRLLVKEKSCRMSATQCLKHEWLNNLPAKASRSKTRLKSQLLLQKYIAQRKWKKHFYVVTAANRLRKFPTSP
Method: as §1

PKCα = target: T12, PKCα (Homo sapiens, UniProt P17252)
T12 construct: purchased Reaction Biology Europe GmbH (formerly ProQinase)
Method: as §1

SIK1 = target: T13, SIK1 (Homo sapiens, UniProt P57059)
T13 construct: purchased Reaction Biology Europe GmbH (formerly ProQinase)
T13 sequence (P57059 whole entry): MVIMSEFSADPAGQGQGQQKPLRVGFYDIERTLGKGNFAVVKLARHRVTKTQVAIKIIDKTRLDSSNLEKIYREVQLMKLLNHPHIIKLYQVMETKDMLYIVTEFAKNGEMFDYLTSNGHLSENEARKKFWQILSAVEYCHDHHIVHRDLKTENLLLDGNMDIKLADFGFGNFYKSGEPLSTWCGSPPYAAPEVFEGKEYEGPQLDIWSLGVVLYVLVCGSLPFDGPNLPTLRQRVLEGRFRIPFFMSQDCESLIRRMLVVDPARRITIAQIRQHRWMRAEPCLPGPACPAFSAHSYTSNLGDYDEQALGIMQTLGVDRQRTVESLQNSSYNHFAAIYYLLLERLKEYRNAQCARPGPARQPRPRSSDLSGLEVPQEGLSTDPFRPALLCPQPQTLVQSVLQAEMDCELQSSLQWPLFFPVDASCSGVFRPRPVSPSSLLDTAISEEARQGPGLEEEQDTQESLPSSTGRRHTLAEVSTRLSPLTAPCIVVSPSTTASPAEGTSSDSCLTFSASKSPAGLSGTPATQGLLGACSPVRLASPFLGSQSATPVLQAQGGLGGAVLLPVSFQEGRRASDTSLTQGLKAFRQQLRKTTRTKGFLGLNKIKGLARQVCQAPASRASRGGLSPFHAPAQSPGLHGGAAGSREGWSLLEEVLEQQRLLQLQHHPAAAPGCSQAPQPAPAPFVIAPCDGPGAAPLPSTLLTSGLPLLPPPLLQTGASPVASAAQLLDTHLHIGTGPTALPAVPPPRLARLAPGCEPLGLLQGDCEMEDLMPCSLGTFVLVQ
Method: as §1

SRC = target: T14, SRC (Homo sapiens, UniProt P12931)
T14 construct: purchased Reaction Biology Europe GmbH (formerly ProQinase)
T14 sequence (P12931 whole entry): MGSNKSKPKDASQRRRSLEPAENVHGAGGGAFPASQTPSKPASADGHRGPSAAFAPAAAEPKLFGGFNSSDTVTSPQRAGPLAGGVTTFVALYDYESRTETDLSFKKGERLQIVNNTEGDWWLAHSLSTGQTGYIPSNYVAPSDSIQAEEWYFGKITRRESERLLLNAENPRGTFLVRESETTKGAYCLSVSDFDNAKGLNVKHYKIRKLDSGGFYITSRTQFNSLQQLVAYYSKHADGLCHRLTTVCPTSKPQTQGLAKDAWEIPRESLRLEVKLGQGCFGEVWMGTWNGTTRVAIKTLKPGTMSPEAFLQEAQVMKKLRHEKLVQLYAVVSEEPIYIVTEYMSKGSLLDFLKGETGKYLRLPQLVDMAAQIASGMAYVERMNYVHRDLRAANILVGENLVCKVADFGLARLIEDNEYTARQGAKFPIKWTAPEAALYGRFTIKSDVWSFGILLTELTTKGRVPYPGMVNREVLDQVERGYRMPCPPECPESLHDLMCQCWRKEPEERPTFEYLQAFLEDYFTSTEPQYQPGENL
Method: as §1

p38α = target: T15, p38α (Homo sapiens, UniProt Q16539)
T15 construct: purchased Reaction Biology Europe GmbH (formerly ProQinase)
T15 sequence (Q16539 whole entry): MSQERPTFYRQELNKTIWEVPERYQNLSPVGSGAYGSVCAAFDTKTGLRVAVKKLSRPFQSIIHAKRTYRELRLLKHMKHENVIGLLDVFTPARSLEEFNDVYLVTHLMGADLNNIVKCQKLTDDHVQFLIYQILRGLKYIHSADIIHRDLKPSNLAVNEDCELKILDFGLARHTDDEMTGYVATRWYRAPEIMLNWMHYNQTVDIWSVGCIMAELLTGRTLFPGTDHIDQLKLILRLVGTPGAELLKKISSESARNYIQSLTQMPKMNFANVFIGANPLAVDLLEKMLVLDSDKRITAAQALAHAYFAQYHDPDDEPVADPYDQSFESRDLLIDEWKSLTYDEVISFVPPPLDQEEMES
Method: as §1

T1 sequence (Q13882 whole entry): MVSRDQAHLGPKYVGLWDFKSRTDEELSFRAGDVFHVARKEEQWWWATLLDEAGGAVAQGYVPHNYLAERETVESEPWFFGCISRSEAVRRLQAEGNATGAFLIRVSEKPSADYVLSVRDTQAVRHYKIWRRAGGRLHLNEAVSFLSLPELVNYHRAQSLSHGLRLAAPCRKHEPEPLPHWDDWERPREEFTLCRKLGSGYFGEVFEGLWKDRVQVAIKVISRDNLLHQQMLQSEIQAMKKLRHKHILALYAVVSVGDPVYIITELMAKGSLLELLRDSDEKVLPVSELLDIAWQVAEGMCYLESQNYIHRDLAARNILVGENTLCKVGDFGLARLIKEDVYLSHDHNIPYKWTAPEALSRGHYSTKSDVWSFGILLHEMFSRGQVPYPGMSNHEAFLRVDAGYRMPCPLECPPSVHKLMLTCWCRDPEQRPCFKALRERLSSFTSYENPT

## COc1ccnc2[nH]cc(-c3cc(N)nc(N)c3)c12 [meriolin 16]
BRK; 0.03 µM
  residual kinase activity: 91 % of control
BRK; 0.3 µM
  residual kinase activity: 85 % of control
CDC42BPB; 0.03 µM
  residual kinase activity: 37 % of control
CDC42BPB; 0.3 µM
  residual kinase activity: 2 % of control
CDK20/CycT1; 0.03 µM
  residual kinase activity: 36 % of control
CDK20/CycT1; 0.3 µM
  residual kinase activity: 17 % of control
CK1γ1; 0.03 µM
  residual kinase activity: 87 % of control
CK1γ1; 0.3 µM
  residual kinase activity: 38 % of control
CK1γ3; 0.03 µM
  residual kinase activity: 77 % of control
CK1γ3; 0.3 µM
  residual kinase activity: 22 % of control
FRK; 0.03 µM
  residual kinase activity: 103 % of control
FRK; 0.3 µM
  residual kinase activity: 99 % of control
HIPK4; 0.03 µM
  residual kinase activity: 74 % of control
HIPK4; 0.3 µM
  residual kinase activity: 24 % of control
JNK2; 0.03 µM
  residual kinase activity: 78 % of control
JNK2; 0.3 µM
  residual kinase activity: 85 % of control
MKK6 SDTD; 0.03 µM
  residual kinase activity: 77 % of control
MKK6 SDTD; 0.3 µM
  residual kinase activity: 87 % of control
MYLK2; 0.03 µM
  residual kinase activity: 65 % of control
MYLK2; 0.3 µM
  residual kinase activity: 32 % of control
MYLK3; 0.03 µM
  residual kinase activity: 119 % of control
MYLK3; 0.3 µM
  residual kinase activity: 77 % of control
PKCα; 0.03 µM
  residual kinase activity: 95 % of control
PKCα; 0.3 µM
  residual kinase activity: 80 % of control
SIK1; 0.03 µM
  residual kinase activity: 102 % of control
SIK1; 0.3 µM
  residual kinase activity: 98 % of control
SRC; 0.03 µM
  residual kinase activity: 95 % of control
SRC; 0.3 µM
  residual kinase activity: 86 % of control
p38α; 0.03 µM
  residual kinase activity: 94 % of control
p38α; 0.3 µM
  residual kinase activity: 74 % of control

## c1ccc(CNc2cc(-c3c[nH]c4ncccc34)ccn2)cc1 [meriolin 36]
BRK; 0.3 µM
  residual kinase activity: 66 % of control
BRK; 3 µM
  residual kinase activity: 18 % of control
CDC42BPB; 0.3 µM
  residual kinase activity: 0 % of control
CDC42BPB; 3 µM
  residual kinase activity: 0 % of control
CDK20/CycT1; 0.3 µM
  residual kinase activity: 19 % of control
CDK20/CycT1; 3 µM
  residual kinase activity: 10 % of control
CK1γ1; 0.3 µM
  residual kinase activity: 23 % of control
CK1γ1; 3 µM
  residual kinase activity: 3 % of control
CK1γ3; 0.3 µM
  residual kinase activity: 49 % of control
CK1γ3; 3 µM
  residual kinase activity: 9 % of control
FRK; 0.3 µM
  residual kinase activity: 54 % of control
FRK; 3 µM
  residual kinase activity: 16 % of control
HIPK4; 0.3 µM
  residual kinase activity: 27 % of control
HIPK4; 3 µM
  residual kinase activity: 2 % of control
JNK2; 0.3 µM
  residual kinase activity: 63 % of control
JNK2; 3 µM
  residual kinase activity: 29 % of control
MKK6 SDTD; 0.3 µM
  residual kinase activity: 63 % of control
MKK6 SDTD; 3 µM
  residual kinase activity: 30 % of control
MYLK2; 0.3 µM
  residual kinase activity: 61 % of control
MYLK2; 3 µM
  residual kinase activity: 26 % of control
MYLK3; 0.3 µM
  residual kinase activity: 71 % of control
MYLK3; 3 µM
  residual kinase activity: 21 % of control
PKCα; 0.3 µM
  residual kinase activity: 49 % of control
PKCα; 3 µM
  residual kinase activity: 11 % of control
SIK1; 0.3 µM
  residual kinase activity: 87 % of control
SIK1; 3 µM
  residual kinase activity: 48 % of control
SRC; 0.3 µM
  residual kinase activity: 88 % of control
SRC; 3 µM
  residual kinase activity: 24 % of control
p38α; 0.3 µM
  residual kinase activity: 78 % of control
p38α; 3 µM
  residual kinase activity: 80 % of control
